Drawing on PubChem BioAssay (NCI), this text covers GI50 and TGI for 14 compounds.

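Where inhibition never reached the appropriate level, the endpoint shown equals the highest concentration tested. Otherwise, values were interpolated linearly from a five-concentration, 48-hour dose response in 96-well plates. GI50 is the concentration that inhibits growth by half. Definition used: TGI = concentration required for complete inhibition of growth.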

Some test systems named below: 786-0 renal; COLO 205 colon; HL-60(TB) leukemia; K-562 leukemia; HCT-116 colon; IGROV1 ovarian; SNB-75 CNS; RPMI-8226 leukemia; OVCAR-4 ovarian.
What all share (assay): inhibition of tumour cell growth, NCI panel, 48 h

For the compound `COc1ccc(-c2cn[nH]c2-c2cc(OC)c(OC)c(OC)c2)cc1`, the GI50 was 0.0656 µM in the experiment on 786-0 renal; 0.0197 µM in the experiment on COLO 205 colon; 0.0249 µM in the experiment on HL-60(TB) leukemia; below 0.0109 µM in the experiment with K-562 leukemia; 0.0342 µM in the experiment on HCT-116 colon; 0.0363 µM in the experiment with IGROV1 ovarian. The values for the GI50 with SNB-75 CNS, with RPMI-8226 leukemia and in the experiment with OVCAR-4 ovarian were 0.022 µM, 0.0429 µM and 0.511 µM, respectively. Besides, the TGI in the experiment on 786-0 renal worked out at 7.76 µM; in the experiment on COLO 205 colon, 0.0482 µM; with HL-60(TB) leukemia, 0.0671 µM; in the experiment with K-562 leukemia, 26.7 µM; with HCT-116 colon it was 11.4 µM; in the experiment with IGROV1 ovarian, 19.9 µM. In addition, the TGI in the experiment on SNB-75 CNS is 33.6 µM; in the experiment on RPMI-8226 leukemia it was 5.16 µM; with OVCAR-4 ovarian, 46.9 µM.

For `CC(=O)O/N=C(/C)c1ccccc1O`, the TGI in the experiment on 786-0 renal, in the experiment on COLO 205 colon, in the experiment with HL-60(TB) leukemia, in the experiment with K-562 leukemia, with HCT-116 colon and in the experiment on IGROV1 ovarian was above 100 µM throughout. Further, the TGI with SNB-75 CNS, in the experiment on RPMI-8226 leukemia and in the experiment on OVCAR-4 ovarian was above 100 µM in each case.

Take `COc1cc(C2CC(C)(O)Oc3cc4c(cc32)OCO4)cc(OC)c1OC` (stereo unspecified): the TGI in the experiment on 786-0 renal was above 100 µM; in the experiment on COLO 205 colon, 2.92 µM; with HL-60(TB) leukemia it was 0.638 µM; with K-562 leukemia it was above 100 µM; in the experiment on HCT-116 colon it was above 100 µM; in the experiment with IGROV1 ovarian, above 100 µM. In addition, the TGI with RPMI-8226 leukemia was 18.7 µM; with OVCAR-4 ovarian, above 100 µM.

For `Cc1ccc(Oc2ccc(C)cc2N)cc1`, the TGI with 786-0 renal, in the experiment on COLO 205 colon, in the experiment with HL-60(TB) leukemia, in the experiment on K-562 leukemia, in the experiment with HCT-116 colon and in the experiment on IGROV1 ovarian was above 100 µM in each case. The TGI was 73.3 µM with SNB-75 CNS, above 100 µM in the experiment with RPMI-8226 leukemia and above 100 µM in the experiment with OVCAR-4 ovarian.

Regarding `C/C(CCn1[nH]c(=O)ccc1=O)=N\NC(=O)C(=O)NN`, the TGI in the experiment on 786-0 renal, in the experiment with COLO 205 colon, with HL-60(TB) leukemia, in the experiment on K-562 leukemia, in the experiment on IGROV1 ovarian and in the experiment with RPMI-8226 leukemia was above 100 µM in each case. In addition, in the experiment with OVCAR-4 ovarian, the TGI was above 100 µM.

`CCCCCC[C@@H]1CCC2C(CO)[C@@H](O)CC[C@@H]2C1` (stereo partly specified): the TGI is 33.5 µM in the experiment on 786-0 renal; 35.1 µM in the experiment with COLO 205 colon; above 100 µM with K-562 leukemia; 32.1 µM in the experiment with HCT-116 colon; 34.7 µM with IGROV1 ovarian; 37.6 µM in the experiment on SNB-75 CNS. Further, the TGI amounted to 63.2 µM in the experiment with RPMI-8226 leukemia and 30.6 µM in the experiment with OVCAR-4 ovarian.

Turning to `O=C(Nc1ccccc1-c1nn(C(=S)Nc2ccccc2)c(=S)n(C(=S)Nc2ccccc2)c1=O)C(F)(F)F`, the TGI in the experiment with 786-0 renal is above 100 µM; with COLO 205 colon, 44.4 µM; in the experiment on HL-60(TB) leukemia it was 58.5 µM; in the experiment on K-562 leukemia, above 95.6 µM; in the experiment on HCT-116 colon, above 51.4 µM; in the experiment on IGROV1 ovarian, above 100 µM. Moreover, the values for the TGI in the experiment with SNB-75 CNS, in the experiment with RPMI-8226 leukemia and in the experiment with OVCAR-4 ovarian were above 88.1 µM, 50.2 µM and above 31.6 µM, respectively.

For `c1ccc(NCn2cnc3ccccc32)cc1`, the TGI with 786-0 renal, in the experiment with COLO 205 colon, with K-562 leukemia, with HCT-116 colon, with IGROV1 ovarian and in the experiment on SNB-75 CNS was above 100 µM throughout. Also, the values for the TGI with RPMI-8226 leukemia and in the experiment with OVCAR-4 ovarian were 71.6 µM and above 100 µM, respectively.

Take `N[C@@H]1CCCC[C@@H]1N.O=P([O-])([O-])CN(CCN(CP(=O)([O-])[O-])CP(=O)([O-])[O-])CP(=O)([O-])[O-].[Pt+2]`: the GI50 in the experiment with 786-0 renal, with COLO 205 colon, in the experiment with HL-60(TB) leukemia, in the experiment on K-562 leukemia, in the experiment with HCT-116 colon and in the experiment with IGROV1 ovarian was above 25 µM each time. In addition, the GI50 with SNB-75 CNS, with RPMI-8226 leukemia and in the experiment with OVCAR-4 ovarian was above 25 µM throughout. Besides, the TGI in the experiment with 786-0 renal, with COLO 205 colon, in the experiment with HL-60(TB) leukemia, in the experiment with K-562 leukemia, with HCT-116 colon and with IGROV1 ovarian was above 25 µM each time. In addition, the TGI with SNB-75 CNS, with RPMI-8226 leukemia and in the experiment with OVCAR-4 ovarian was above 25 µM in each case.

As to `CCOC(=O)C1=C(C(=O)OCC)C2c3ccccc3C=CN2C(C(=O)OCC)=C(SC)S1` (stereo unspecified), the TGI in the experiment with 786-0 renal, in the experiment with COLO 205 colon, with HL-60(TB) leukemia, in the experiment with K-562 leukemia, in the experiment with HCT-116 colon and with IGROV1 ovarian was above 100 µM in each case. Further, the TGI in the experiment on SNB-75 CNS and in the experiment on RPMI-8226 leukemia was above 100 µM in each case.

For the compound `COC(=O)CC(c1ccccc1)C1(c2ccccc2)SCCS1` (stereo unspecified), the TGI in the experiment on 786-0 renal, in the experiment on COLO 205 colon, in the experiment with HL-60(TB) leukemia, in the experiment with K-562 leukemia, with HCT-116 colon and in the experiment with IGROV1 ovarian was above 290 µM in each case. The TGI with RPMI-8226 leukemia is above 290 µM.

Consider `COc1cc(/C(C#N)=C/c2nc3c(N4CCOCC4)nc(Cl)nc3n2C)cc(OC)c1OC`, for which the GI50 was below 0.01 µM in the experiment with 786-0 renal; 0.0124 µM with COLO 205 colon; below 0.01 µM in the experiment on HL-60(TB) leukemia; below 0.01 µM with K-562 leukemia; below 0.01 µM in the experiment with HCT-116 colon; below 0.01 µM with IGROV1 ovarian. The GI50 with RPMI-8226 leukemia and in the experiment on OVCAR-4 ovarian was below 0.01 µM throughout. In addition, the TGI with 786-0 renal was 3.12 µM; with COLO 205 colon it was 0.0335 µM; in the experiment with HL-60(TB) leukemia, below 0.01 µM; with K-562 leukemia, above 38.4 µM; in the experiment on HCT-116 colon it was 0.464 µM; in the experiment on IGROV1 ovarian, 16.6 µM. For the same compound, the TGI in the experiment on RPMI-8226 leukemia amounted to 1.88 µM; with OVCAR-4 ovarian, 41.1 µM.

Regarding `CC(C)(C)c1cc2c(O)c3cccc4c(=O)c5cccc6c5-c(c34)c2c(c1)c6=O`, the TGI in the experiment with 786-0 renal, in the experiment on COLO 205 colon, in the experiment on HL-60(TB) leukemia, in the experiment with K-562 leukemia, in the experiment with HCT-116 colon and with IGROV1 ovarian was above 100 µM in each case. The TGI in the experiment with SNB-75 CNS and with OVCAR-4 ovarian was above 100 µM each time.

As to `Cc1ccc(/C=C/C(=O)c2cccc3ccccc23)cc1`, the TGI in the experiment on 786-0 renal was 28.2 µM; in the experiment on COLO 205 colon it was 56.4 µM; in the experiment with HL-60(TB) leukemia it was 28.3 µM; with K-562 leukemia, 44.3 µM; in the experiment with HCT-116 colon, 24.6 µM; in the experiment with SNB-75 CNS, 34.6 µM. For the same compound, the TGI in the experiment with RPMI-8226 leukemia was above 100 µM; in the experiment on OVCAR-4 ovarian, 28 µM.
